The text below walks through data of patent US20170107229A1, “SUBSTITUTED TETRAHYDROPYRIDOTHIENOPYRIMIDINES” (BAYER PHARMA AKTIENGESELLSCHAFT, priority 2014, published 2017).

The target of the experiment is T1, human full-length MKNK1 (Homo sapiens, UniProt Q9BUB5, T385D).
T1 construct: GST (N); purchased Carna Biosciences 02-145; host or cells: insect cells (baculovirus expression system)
T1 sequence (Q9BUB5 1-424 isoform Q9BUB5-2 T344D): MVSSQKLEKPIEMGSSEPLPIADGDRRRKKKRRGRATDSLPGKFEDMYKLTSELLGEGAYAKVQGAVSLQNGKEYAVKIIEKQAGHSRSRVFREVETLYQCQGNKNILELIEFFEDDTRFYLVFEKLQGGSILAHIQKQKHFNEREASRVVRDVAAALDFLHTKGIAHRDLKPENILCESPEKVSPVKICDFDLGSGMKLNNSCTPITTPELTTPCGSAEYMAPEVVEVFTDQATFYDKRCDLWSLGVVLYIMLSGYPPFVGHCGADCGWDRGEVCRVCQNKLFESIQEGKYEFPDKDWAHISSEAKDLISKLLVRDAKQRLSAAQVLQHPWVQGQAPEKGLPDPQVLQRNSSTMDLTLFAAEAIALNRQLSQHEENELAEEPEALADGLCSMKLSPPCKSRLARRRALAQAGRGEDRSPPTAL
As to the kind of experiment: MKNK1 kinase high ATP assay (TR-FRET). The format is biochemical. The settings on record: high ATP (2 mM final), 15 min preincubation with enzyme, GST-MKNK1 (T344D). As for the experimental part: MKNK1-inhibitory activity at high ATP of compounds of the present invention after their preincubation with MKNK1 was quantified employing the TR-FRET-based MKNK1 high ATP assay as described in the following paragraphs.
A recombinant fusion protein of Glutathione-S-Transferase (GST, N-terminally) and human full-length MKNK1 (amino acids 1-424 and T344D of accession number BAA 19885.1), expressed in insect cells using baculovirus expression system and purified via glutathione sepharose affinity chromatography, was purchased from Carna Biosciences (product no 02-145) and used as enzyme. As substrate for the kinase reaction the biotinylated peptide biotin-Ahx-IKKRKLTRRKSLKG (C-terminus in amide form) was used, which can be purchased e.g. from the company Biosyntan (Berlin-Buch, Germany).
For the assay 50 nL of a 100fold concentrated solution of the test compound in DMSO was pipetted into a black low volume 384well microtiter plate (Greiner Bio-One, Frickenhausen, Germany), 2 μL of a solution of MKNK1 in aqueous assay buffer [50 mM HEPES pH 7.5, 5 mM MgCl2, 1.0 mM dithiothreitol, 0.005% (v/v) Nonidet-P40 (Sigma)] was added and the mixture was incubated for 15 min at 22° C. to allow pre-binding of the test compounds to the enzyme before the start of the kinase reaction. Then the kinase reaction was started by the addition of 3 μL of a solution of adenosine-tri-phosphate (ATP, 3.3 mM=>final conc. in the 5 μL assay volume is 2 mM) and substrate (0.1 μM=>final conc. in the 5 μL assay volume is 0.06 μM) in assay buffer and the resulting mixture was incubated for a reaction time of 30 min at 22° C. The concentration of MKNK1 was adjusted depending of the activity of the enzyme lot and was chosen appropriate to have the assay in the linear range, typical concentrations were in the range of 0.003 μg/mL. The reaction was stopped by the addition of 5 μL of a solution of TR-FRET detection reagents (5 nM streptavidine-XL665 [Cisbio Bioassays, Codolet, France] and 1 nM anti-ribosomal protein S6 (pSer236)-antibody from Invitrogen [#44921G] and 1 nM LANCE EU-W1024 labeled ProteinG [Perkin-Elmer, product no. AD0071]) in an aqueous EDTA-solution (100 mM EDTA, 0.1% (w/v) bovine serum albumin in 50 mM HEPES pH 7.5).
The resulting mixture was incubated for 1 h at 22° C. to allow the formation of complex between the phosphorylated biotinylated peptide and the detection reagents. Subsequently the amount of phosphorylated substrate was evaluated by measurement of the resonance energy transfer from the Eu-chelate to the streptavidine-XL. Therefore, the fluorescence emissions at 620 nm and 665 nm after excitation at 350 nm were measured in a TR-FRET reader, e.g. a Rubystar (BMG Labtechnologies, Offenburg, Germany) or a Viewlux (Perkin-Elmer). The ratio of the emissions at 665 nm and at […] was taken as the measure for the amount of phosphorylated substrate. The data were normalised (enzyme reaction without inhibitor=0% inhibition, all other assay components but no enzyme=100% inhibition).
For orientation: TR-FRET usually uses a lanthanide donor and a delayed reading to cut background.
What is called IC50 is the concentration that inhibits the measured activity by half. Read a high IC50 as weaker potency. Regarding `CN(C)C(=O)N1CCc2c(sc3ncnc(Nc4cc5cn[nH]c5cc4Cl)c23)C1` [Example 27, 4-[(6-Chloro-1H-indazol-5-yl)amino]-N,N-dimethyl-5,8-dihydropyrido[4′,3′:4,5]thieno[2,3-d]pyrimidine-7(6H)-carboxamide], half-maximal inhibition (IC50) was put at 0.025 µM.
The compound `CN(C)C(=O)N1CCc2c(sc3ncnc(Nc4cc5cn[nH]c5cc4Br)c23)C1` [Example 29, 4-[(6-Bromo-1H-indazol-5-yl)amino]-N,N-dimethyl-5,8-dihydropyrido[4′,3′:4,5]thieno[2,3-d]pyrimidine-7(6H)-carboxamide] showed an IC50 of 0.037 µM.
The value for `CN(C)C(=O)N1CCc2c(sc3ncnc(Nc4ccn5nccc5c4)c23)C1` [Example 30, N,N-Dimethyl-4-(pyrazolo[1,5-a]pyridin-5-ylamino)-5,8-dihydropyrido[4′,3′:4,5]thieno[2,3-d]pyrimidine-7(6H)-carboxamide] was 0.484 µM; that for `C[C@@H]1CN(C(=O)N2CCc3c(sc4ncnc(Nc5ccc6[nH]c(=O)sc6c5)c34)C2)C[C@H](C)O1` [Example 31, 6-[(7-{[(2R,6S)-2,6-Dimethylmorpholin-4-yl]carbonyl}-5,6,7,8-tetrahydropyrido[4′,3′:4,5]thieno[2,3-d]pyrimidin-4-yl)amino]-1,3-benzothiazol-2(3H)-one] was 0.059 µM.
In the case of `COc1cc2[nH]ncc2cc1Nc1ncnc2sc3c(c12)CCN(C(=O)N1C[C@@H](C)O[C@@H](C)C1)C3` [Example 32, [(2R,6S)-2,6-Dimethylmorpholin-4-yl]{4-[(6-methoxy-1H-indazol-5-yl)amino]-5,8-dihydropyrido[4′,3′:4,5]thieno[2,3-d]pyrimidin-7(6H)-yl}methanone] it was 0.01 µM; in that of `C[C@@H]1CN(C(=O)N2CCc3c(sc4ncnc(Nc5ccc6[nH]ncc6c5)c34)C2)C[C@H](C)O1` [Example 33, [(2R,6S)-2,6-Dimethylmorpholin-4-yl][4-(1H-indazol-5-ylamino)-5,8-dihydropyrido[4′,3′:4,5]thieno[2,3-d]pyrimidin-7(6H)-yl]methanone], 0.021 µM; in that of `C[C@@H]1CN(C(=O)N2CCc3c(sc4ncnc(Nc5cc6cn[nH]c6cn5)c34)C2)C[C@H](C)O1` [Example 34, [(2R,6S)-2,6-Dimethylmorpholin-4-yl][4-(1H-pyrazolo[3,4-c]pyridin-5-ylamino)-5,8-dihydropyrido[4′,3′:4,5]thieno[2,3-d]pyrimidin-7(6H)-yl]methanone], 0.07 µM.
In the case of `C[C@@H]1CN(C(=O)N2CCc3c(sc4ncnc(Nc5cnc6[nH]ncc6c5)c34)C2)C[C@H](C)O1` [Example 35, [(2R,6S)-2,6-Dimethylmorpholin-4-yl][4-(1H-pyrazolo[3,4-b]pyridin-5-ylamino)-5,8-dihydropyrido[4′,3′:4,5]thieno[2,3-d]pyrimidin-7(6H)-yl]methanone] it was 0.027 µM; in that of `CS(=O)(=O)N1CCc2c(sc3ncnc(Nc4ccn5nccc5c4)c23)C1` [Example 36, 7-(Methylsulfonyl)-N-(pyrazolo[1,5-a]pyridin-5-yl)-5,6,7,8-tetrahydropyrido[4′,3′:4,5]thieno[2,3-d]pyrimidin-4-amine], 0.157 µM; in that of `COc1cc2[nH]ncc2cc1Nc1ncnc2sc3c(c12)CCN(S(C)(=O)=O)C3` [Example 37, N-(6-Methoxy-1H-indazol-5-yl)-7-(methylsulfonyl)-5,6,7,8-tetrahydropyrido[4′,3′:4,5]thieno[2,3-d]pyrimidin-4-amine], 0.003 µM.
`CS(=O)(=O)N1CCc2c(sc3ncnc(Nc4ccc5[nH]ncc5c4)c23)C1` [Example 38, N-(1H-Indazol-5-yl)-7-(methylsulfonyl)-5,6,7,8-tetrahydropyrido[4′,3′:4,5]thieno[2,3-d]pyrimidin-4-amine] gave an IC50 of 0.068 µM.
`CS(=O)(=O)N1CCc2c(sc3ncnc(Nc4ccc5[nH]c(=O)sc5c4)c23)C1` [Example 39, 6-{[7-(Methylsulfonyl)-5,6,7,8-tetrahydropyrido[4′,3′:4,5]thieno[2,3-d]pyrimidin-4-yl]amino}-1,3-benzothiazol-2(3H)-one] showed an IC50 of 0.316 µM.
